Measured values from patent US9363996B2, “Compositions and method for blocking ethylene response in field crops using 3-(cy-clopropyl-l-enyl)-propanoic salt” (Yissum Research Development Company of the Hebrew …, priority 2009, dated 2016).

System: wheat plants
Test: Ethephon-induced chlorophyll degradation in wheat leaves, glumes and chaffs
Format: in vivo, wheat (Triticum turgidum var. 'Gdera')
Conditions: for Ethephon-induced decrease in the content of chlorophyll: WS-CPD 45 μg mL^−1
Experimental: (1) Abscission—This is a very sensitive model system for studying the effects of plant hormones. Ethylene induces the process of abscission, while auxin delays it. In the laboratory the experimental system is based on plant organ explants, which include the abscission zone. Abscission is induced by exposure to ethylene and at the termination of the experiment the number of abscised organs, usually either leaf blades or petioles are counted and the fraction of abscission is calculated. In the case of fruit, the decrease in fruit retention force is analyzed. In cotton, when WS-CPD (the ethylene-action antagonist herein disclosed) is tested, the whole plants or explants are pretreated by spraying with the antagonist, dissolved in a phosphate buffer solution (10-20 mM, pH 7.0) including 0.1% commercially available Kinetic™ as surfactant, and left to incubate for a predetermined time, usually between 6 and 24 h. The plants or explants are then further exposed for 24 h to ethylene gas (5 to 20 μL L^−1). The plants or explants are then ventilated and incubated for the required time under controlled conditions. At the end of the experiment the percentage of abscission is determined. (2) Chlorophyll degradation—This is a standard model for studying senescence. Plant material (whole plants, excised leaves or leaf discs) are pretreated. In cotton, tobacco and wheat, when WS-CPD is tested, the whole plants or explants are pretreated by spraying with the antagonist, dissolved in phosphate buffer solution (10-20 mM, pH 7.0) including 0.1% commercially available Kinetic™ surfactant, and left to incubate for a predetermined time, usually between 6 and 241. The plants or explants are then further exposed for 24 h to ethylene gas (1 to 100 μL L^−1), or sprayed with Ethephon™ (wheat; 250 to 750 μL L^−1). The plants or explants are then ventilated and incubated for the required time under controlled conditions. At the end of the experiment a dimethylsulfoxide (DMSO) extract of the plant tissue is prepared, and the chlorophyll content of the extract is determined by spectrophotometric analysis. The chlorophyll content is reported either on a fresh, dry weight basis, or on a surface area basis. (3) Epinasty—This is also one of the classical methods for studying ethylene effects in plants. The extent of ethylene-induced epinasty of leaves is determined by measuring the change of the angle between the petiole and the stem shoot or blade. After exposure of the intact plant to ethylene, the upright grown leaves bend downward. The increase in the angle values (degrees) between petiole and the stem is used as a measure of the effect of the ethylene. When WS-CPD is tested on cotton and wheat plants, the whole plants are pretreated by spraying with the antagonist dissolved in phosphate buffer solution (10-20 mM, pH 7.6) including 0.1% Kinetic™ as surfactant, and left to incubate for a predetermined time, usually between 6 and 24 h. The plants are then further exposed for 24 h to ethylene gas (cotton, 5 to 10 μL L^−1), or sprayed with Ethephon™ (wheat, 250 to 750 μL L^−1). The plants are then ventilated and incubated for the required time under controlled conditions. The epinastic effect is expressed by measuring the degree values of the downward curvature between the blade and petiole (cotton, FIGS. 1-3) or between the blade and the stem (wheat, FIGS. 31 and 32). (4) Wheat Grain yield—This is a common test of the effects of exposure of monocot plants either to environmental stresses such as drought that induce senescence by increasing endogenous ethylene production. Excessive internal or external ethylene will accelerate senescence which will lead to reduced grain yield. In this project the intact plants were grown in the greenhouse up to the spike hading at milky stage I and II. The plants were then sprayed with the dissolved WS-CPD in phosphate buffer solution (10 mM, pH 7.6) including 0.1% Kinetic™ as surfactant. Young Cotton Seedlings […]

O=C([O-])CCC1=CC1.[Na+] [WS-CPD, 3-cyclopropyl-1-enyl-propanoic sodium salt]
Ethephon-induced chlorophyll degradation in the glumes and chaffs (WS-CPD 62 μg mL^−1, Ethephon 250 μL L^−1): completely reversed
decrease of chlorophyll content in the flag leaf (WS-CPD 312 μg mL^−1, Ethephon 250 μL L^−1, milky stage I): almost completely antagonized
chlorophyll decrease induced by Ethephon (WS-CPD 415 μg mL^−1, Ethephon 750 μL L^−1, both types of leaves, milky stage I): only slightly antagonized
Ethephon-induced decrease of chlorophyll (WS-CPD 12 to 62 μg mL^−1, milky stage I, mainly flag leaf, also leaf II): significantly reduced
effect on chlorophyll in leaves treated with Ethephon (WS-CPD 15 to 135 μg L^−1 (so in the source), Ethephon 750 μL L^−1, milky stage II): not effective
decrease in the chlorophyll titer in the treated spike-chaffs (WS-CPD 15 to 135 μg L^−1 (so in the source), Ethephon 750 μL L^−1, milky stage II, insignificant): 3%
Ethephon-induced decrease in the content of chlorophyll (chaffs, Ethephon 750 μL L^−1): markedly antagonized
increase of chlorophyll content above control untreated plants (chaffs, WS-CPD 62 μg mL^−1, Ethephon 250 μL L^−1): 10%
Ethephon-induced decrease in the content of chlorophyll (glumes, Ethephon 750 μL L^−1): much less effective
increase of chlorophyll content above control untreated plants (glumes, WS-CPD 62 μg mL^−1, Ethephon 250 μL L^−1): 60%
